Converted amounts (≈) assume the structure as drawn. A value given as a limit tells only on which side of the number the result lay.

The term MIC denotes the least concentration at which growth counts as inhibited. For orientation: HC50 means the concentration giving 50% haemolysis.

In series [1] the test system is Staphylococcus epidermidis. Kind of series: Antibacterial activity against vancomycin-susceptible Staphylococcus epidermidis ATCC12228 assessed as reduction in bacterial growth by broth microdilution assay. It is filed as functional. For orientation: Dilution methods test growth across graded concentrations, often in twofold steps.
Another series relates to Escherichia coli. Kind of series: Antibacterial activity against Escherichia coli ATCC25922 assessed as reduction in bacterial growth by broth microdilution assay. The class given is functional.
A further series concerns Acinetobacter baumannii. Kind of series: Antibacterial activity against Acinetobacter baumannii ATCC19606 assessed as reduction in bacterial growth by broth microdilution assay. The class given is functional.
For the next series, the system named is Bacillus subtilis. Kind of series: Antibacterial activity against […] Bacillus subtilis ATCC9372 assessed as reduction in bacterial growth by broth microdilution assay. It is filed as functional.
Series [2] concerns Staphylococcus aureus. The series can be described thus: Antibacterial activity against Staphylococcus aureus ATCC25923 assessed as reduction in bacterial growth by broth microdilution assay. It is filed as functional.
Series [3] relates to Staphylococcus aureus. Kind of series: Antibacterial activity against Staphylococcus aureus ATCC31007 assessed as reduction in bacterial growth by broth microdilution assay. The class given is functional.
The next series has as its system Klebsiella pneumoniae. Kind of series: Antibacterial activity against erythromycin-susceptible Klebsiella pneumoniae ATCC10031 assessed as reduction in bacterial growth by broth microdilution assay. The class given is functional.
For series [4], the system named is Staphylococcus aureus. Kind of series: Antibacterial activity against […] Staphylococcus aureus ATCC43300 assessed as reduction in bacterial growth by broth microdilution assay. It is filed as functional.
The next series relates to Enterococcus faecalis. The series can be described thus: Antibacterial activity against penicillin-susceptible Enterococcus faecalis ATCC29212 assessed as reduction in bacterial growth by broth microdilution assay. It is filed as functional.
A further series has as its system Pseudomonas aeruginosa. The series can be described thus: Antibacterial activity against penicillin-susceptible Pseudomonas aeruginosa ATCC27853 assessed as reduction in bacterial growth by broth microdilution assay. It is filed as functional.
Series [5] in a line: Hemolytic activity in RBC (unknown origin) assessed as hemolysis. The class given is toxicity, cell-based.

For `COc1c2c(c3c(c1C(=O)/C=C/c1ccc(OCCC[N+](C)(C)CCCN(C)C)cc1)OC(C)(CCC=C(C)C)C=C3)OC(C)(CCC=C(C)C)C=C2` (stereo not drawn), the MIC in [1] was 2 µg/mL; with Escherichia coli, above 128 µg/mL; in the series with Acinetobacter baumannii it was 32 µg/mL; in the series with Bacillus subtilis it was 4 µg/mL; in the series with Staphylococcus aureus [2] it was 4 µg/mL; with Staphylococcus aureus [3], 32 µg/mL. The minimum inhibitory concentration (MIC) in the series with Klebsiella pneumoniae is above 128 µg/mL; in the series on Staphylococcus aureus [4], 16 µg/mL; with Enterococcus faecalis, 16 µg/mL; in the series with Pseudomonas aeruginosa, above 128 µg/mL.
Take `CCCCN(CCCC)CCCNC(=O)COc1c2c(c3c(c1C(C)=O)OC(C)(CCC=C(C)C)C=C3)OC(C)(CCC=C(C)C)C=C2` (stereo not drawn): the MIC in series [1] is 4 µg/mL (≈ 6.03 µM); in the series with Escherichia coli it was above 128 µg/mL; with Acinetobacter baumannii, above 128 µg/mL; in the series on Bacillus subtilis, 8 µg/mL (≈ 12.1 µM); in the series with Staphylococcus aureus [2], 4 µg/mL (≈ 6.03 µM); with Staphylococcus aureus [3], 4 µg/mL (≈ 6.03 µM). The MIC was above 128 µg/mL with Klebsiella pneumoniae, 8 µg/mL (≈ 12.1 µM) in the series with Staphylococcus aureus [4], 4 µg/mL (≈ 6.03 µM) in the series on Enterococcus faecalis and above 128 µg/mL in the series with Pseudomonas aeruginosa.
Consider `CN[C@H](CC(C)C)C(=O)N[C@H]1C(=O)N[C@@H](CC(N)=O)C(=O)N[C@H]2C(=O)N[C@H]3C(=O)N[C@H](C(=O)N[C@H](C(=O)O)c4cc(O)cc(O)c4-c4cc3ccc4O)[C@H](O)c3ccc(c(Cl)c3)Oc3cc2cc(c3O[C@@H]2O[C@H](CO)[C@@H](O)[C@H](O)[C@H]2O[C@H]2C[C@](C)(N)[C@H](O)[C@H](C)O2)Oc2ccc(cc2Cl)[C@H]1O` [VANCOMYCIN], for which the MIC was 128 µg/mL (≈ 88.3 µM) with Escherichia coli; 16 µg/mL (≈ 11 µM) with Acinetobacter baumannii; 0.5 µg/mL (≈ 0.345 µM) with Bacillus subtilis; 128 µg/mL (≈ 88.3 µM) with Klebsiella pneumoniae; 2 µg/mL (≈ 1.38 µM) in the series on Enterococcus faecalis; above 128 µg/mL with Pseudomonas aeruginosa.
Turning to `COc1c2c(c3c(c1C(=O)/C=C/c1ccc(OCCCNCCCN4CCN(C)CC4)cc1)OC(C)(CCC=C(C)C)C=C3)OC(C)(CCC=C(C)C)C=C2` (stereo not drawn), the MIC is 4 µg/mL (≈ 5.32 µM) in series [1]; above 128 µg/mL in the series with Escherichia coli; above 128 µg/mL in the series on Acinetobacter baumannii; 4 µg/mL (≈ 5.32 µM) with Bacillus subtilis; 4 µg/mL (≈ 5.32 µM) in the series with Staphylococcus aureus [2]; 4 µg/mL (≈ 5.32 µM) in the series with Staphylococcus aureus [3]. The MIC in the series with Klebsiella pneumoniae is above 128 µg/mL; in the series on Staphylococcus aureus [4], 8 µg/mL (≈ 10.6 µM); with Enterococcus faecalis, 8 µg/mL (≈ 10.6 µM); with Pseudomonas aeruginosa it was above 128 µg/mL.
As to `CNCCN(C)C(=O)COc1c2c(c3c(c1C(C)=O)OC(C)(CCC=C(C)C)C=C3)OC(C)(CCC=C(C)C)C=C2` (stereo not drawn), the MIC in [1] was 4 µg/mL (≈ 7.08 µM); with Escherichia coli, above 128 µg/mL; in the series on Acinetobacter baumannii, 128 µg/mL (≈ 227 µM); with Bacillus subtilis, 16 µg/mL (≈ 28.3 µM); in the series with Staphylococcus aureus [2], 4 µg/mL (≈ 7.08 µM); in the series on Staphylococcus aureus [3], 4 µg/mL (≈ 7.08 µM). Moreover, the MIC stood at 128 µg/mL (≈ 227 µM) in the series with Klebsiella pneumoniae, 4 µg/mL (≈ 7.08 µM) with Staphylococcus aureus [4], 8 µg/mL (≈ 14.2 µM) in the series on Enterococcus faecalis and 128 µg/mL (≈ 227 µM) in the series with Pseudomonas aeruginosa.
As to `CC(=O)c1c(OCC(=O)NCCCN2CCN(C)CC2)c2c(c3c1OC(C)(CCC=C(C)C)C=C3)OC(C)(CCC=C(C)C)C=C2` (stereo not drawn), the MIC in series [1] is 1 µg/mL (≈ 1.58 µM); in the series on Escherichia coli it was above 128 µg/mL; with Acinetobacter baumannii, 128 µg/mL (≈ 202 µM); in the series with Bacillus subtilis it was 2 µg/mL (≈ 3.16 µM); in the series with Staphylococcus aureus [2], 2 µg/mL (≈ 3.16 µM); in the series with Staphylococcus aureus [3] it was 2 µg/mL (≈ 3.16 µM). Besides, the MIC with Klebsiella pneumoniae was above 128 µg/mL; with Staphylococcus aureus [4], 4 µg/mL (≈ 6.31 µM); in the series on Enterococcus faecalis, 0.5 µg/mL (≈ 0.789 µM); in the series on Pseudomonas aeruginosa, above 128 µg/mL. In addition, the HC90 in series [5] (rbc) was determined as 137.3 µg/mL. Moreover, the 50% haemolytic concentration (HC50) in [5] (red blood cells) amounted to 46 µg/mL.
On to `COc1c2c(c3c(c1C(=O)/C=C/c1ccc(OCCC[N+](C)(C)CCCN)cc1)OC(C)(CCC=C(C)C)C=C3)OC(C)(CCC=C(C)C)C=C2` (stereo not drawn), for which the MIC in series [1] is 4 µg/mL; with Escherichia coli it was above 128 µg/mL; with Acinetobacter baumannii it was above 128 µg/mL; with Bacillus subtilis, 8 µg/mL; in the series on Staphylococcus aureus [2], 16 µg/mL; in the series on Staphylococcus aureus [3], 8 µg/mL. The MIC is above 128 µg/mL in the series with Klebsiella pneumoniae, 32 µg/mL with Staphylococcus aureus [4], above 128 µg/mL in the series on Enterococcus faecalis and above 128 µg/mL in the series on Pseudomonas aeruginosa.
Turning to `CCN(CC)CCCNC(=O)COc1c2c(c3c(c1C(C)=O)OC(C)(CCC=C(C)C)C=C3)OC(C)(CCC=C(C)C)C=C2` (stereo not drawn), the MIC in series [1] was 2 µg/mL (≈ 3.3 µM); in the series on Escherichia coli it was above 128 µg/mL; with Acinetobacter baumannii, above 128 µg/mL; with Bacillus subtilis, 2 µg/mL (≈ 3.3 µM); in the series with Staphylococcus aureus [2], 4 µg/mL (≈ 6.59 µM); in the series on Staphylococcus aureus [3], 4 µg/mL (≈ 6.59 µM). Further, the MIC with Klebsiella pneumoniae is above 128 µg/mL; with Staphylococcus aureus [4], 4 µg/mL (≈ 6.59 µM); with Enterococcus faecalis, 2 µg/mL (≈ 3.3 µM); in the series on Pseudomonas aeruginosa, 128 µg/mL (≈ 211 µM).

For the origin of these results see ChEMBL document CHEMBL6074631, “Design, synthesis, and evaluation of pyranochromene derivatives as membrane targeting antibacterials against Gram-positive bacteria” (Bioorg Med Chem Lett, 2024).
